Experimental data taken from patent publication US10770169B2, “Method of providing a treatment to a subject based on a dynamic pathway map” (THE REGENTS OF THE UNIVERSITY OF CALIFORNIA, priority 2010, dated 2020).
“Also recorded” adds a separate entry of the source.

Columns and labels:
[1] = tested on: panel of 55 breast cancer cell lines; test: Cell growth inhibition assay (Cell Titer Glo, 72 h, 9 doses; GI50, TGI, LC50); assay type: cell-based, human; details: value is the negative log10 of mol/L
[2] = tested on: luminal, basal, claudin-low and ERBB2AMP breast cancer cell lines; test: Associations of clinically relevant subtypes and response (non-parametric ANOVA or t-test on GI50 ranks); assay type: cell-based, human; details: for Subtype specificity: Table 6, most sensitive subtype, FDR p<0.20
How it was run: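 Significance was set at FDR p<0.20 after combining p-values across three test sets. Subtype–response associations came from rank-based non-parametric ANOVA or t-tests on GI50. For three-class comparisons, post-hoc tests of each group against the rest identified the most sensitive group, with FDR correction.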

[3] = AU565 cell line, censored GI50 values
[4] = BT474 cell line, censored GI50 values
[5] = BT483 cell line, censored GI50 values
[6] = CAMA1 cell line, censored GI50 values
[7] = HCC38 cell line, censored GI50 values
[8] = HCC70 cell line, censored GI50 values
[9] = HCC1143 cell line, censored GI50 values
[10] = HCC1187 cell line, censored GI50 values
[11] = HCC1419 cell line, censored GI50 values
[12] = HCC1428 cell line, censored GI50 values
[13] = HCC1500 cell line, censored GI50 values
[14] = HCC1806 cell line, censored GI50 values
[15] = HCC1937 cell line, censored GI50 values
[16] = HCC1954 cell line, censored GI50 values
[17] = HCC2185 cell line, censored GI50 values
[18] = HCC3153 cell line, censored GI50 values
[19] = LY2 cell line, censored GI50 values
[20] = MCF7 cell line, censored GI50 values
[21] = MDAMB134VI cell line, censored GI50 values
[22] = MDAMB175VII cell line, censored GI50 values
[23] = MDAMB361 cell line, censored GI50 values
[24] = MDAMB415 cell line, censored GI50 values
[25] = MDAMB436 cell line, censored GI50 values
[26] = MDAMB453 cell line, censored GI50 values
[27] = MDAMB468 cell line, censored GI50 values
[28] = SKBR3 cell line, censored GI50 values
[29] = SUM52PE cell line, censored GI50 values
[30] = SUM149PT cell line, censored GI50 values
[31] = SUM159PT cell line, censored GI50 values
[32] = SUM185PE cell line, censored GI50 values
[33] = SUM1315MO2 cell line, censored GI50 values
[34] = ZR75B cell line, censored GI50 values
[35] = ZR751 cell line, censored GI50 values

`O=c1[nH]c2ccccc2n1C1CCN(Cc2ccc(-c3nc4cc5[nH]cnc5cc4nc3-c3ccccc3)cc2)CC1` [Sigma AKT1-2 inhibitor] showed a GI50 [1, 3] of 5.61, a GI50 ([1]; BT20 cell line, censored GI50 values) of 5.00 and a GI50 [1, 4] of 6.08. The GI50 [1, 5] was 6.08, the GI50 [1, 6] was 5.59 and the GI50 [1, 7] was 4.98. It also gave a GI50 [1, 8] of 5.74, a GI50 [1, 9] of 4.87 and a GI50 [1, 10] of 5.47. The GI50 [1, 11] was 6.03, the GI50 [1, 12] was 5.35 and the GI50 [1, 13] was 4.89. The GI50 [1, 14] was 5.05, the GI50 [1, 15] was 5.00 and the GI50 [1, 16] was 5.08. For the same molecule, the GI50 [1, 17] was 5.75, the GI50 [1, 18] was 4.99 and the GI50 [1, 19] was 5.77. For the same molecule, the GI50 [1, 20] was 5.78, the GI50 [1, 21] was 5.02 and the GI50 [1, 22] was 5.51. The GI50 [1, 23] was 6.05, the GI50 [1, 24] was 4.95 and the GI50 [1, 25] was 4.47. The GI50 [1, 26] was 5.73, the GI50 [1, 27] was 5.01 and the GI50 [1, 28] was 5.68. It also gave a GI50 [1, 29] of 5.81, a GI50 [1, 30] of 5.03 and a GI50 [1, 31] of 5.17. It also gave a GI50 [1, 32] of 5.95, a GI50 ([1]; SUM225CWN cell line, censored GI50 values) of 6.05 and a GI50 [1, 33] of 5.33. The GI50 ([1]; T47D cell line, censored GI50 values) was 5.78, the GI50 ([1]; UACC812 cell line, censored GI50 values) was 5.53 and the GI50 [1, 34] was 5.93. The GI50 [1, 35] was 5.94, the GI50 ([1]; cell line AU565) was 5.61 and the GI50 ([1]; cell line BT20) was 5.00. It also gave a GI50 ([1]; cell line BT474) of 6.08, a GI50 ([1]; cell line BT483) of 6.08 and a GI50 ([1]; cell line CAMA1) of 5.59. For the same molecule, the GI50 ([1]; cell line HCC38) was 4.98, the GI50 ([1]; cell line HCC70) was 5.74 and the GI50 ([1]; cell line HCC1143) was 4.87. It also gave a GI50 ([1]; cell line HCC1187) of 5.47, a GI50 ([1]; cell line HCC1419) of 6.03 and a GI50 ([1]; cell line HCC1428) of 5.35. It also gave a GI50 ([1]; cell line HCC1500) of 4.89, a GI50 ([1]; cell line HCC1806) of 5.05 and a GI50 ([1]; cell line HCC1937) of 5.00. For the same molecule, the GI50 ([1]; cell line HCC1954) was 5.08, the GI50 ([1]; cell line HCC2185) was 5.75 and the GI50 ([1]; cell line HCC3153) was 4.99. It also gave a GI50 ([1]; cell line LY2) of 5.77, a GI50 ([1]; cell line MCF7) of 5.78 and a GI50 ([1]; cell line MDAMB134V) of 5.02. The GI50 ([1]; cell line MDAMB175V) was 5.51, the GI50 ([1]; cell line MDAMB361) was 6.05 and the GI50 ([1]; cell line MDAMB415) was 4.95. For the same molecule, the GI50 ([1]; cell line MDAMB436) was 4.47, the GI50 ([1]; cell line MDAMB453) was 5.73 and the GI50 ([1]; cell line MDAMB468) was 5.01. The GI50 ([1]; cell line SKBR3) was 5.68, the GI50 ([1]; cell line SUM52PE) was 5.81 and the GI50 ([1]; cell line SUM149PT) was 5.03. It also gave a GI50 ([1]; cell line SUM159PT) of 5.17, a GI50 ([1]; cell line SUM185PE) of 5.95 and a GI50 ([1]; cell line SUM225CWN) of 6.05. The GI50 ([1]; cell line SUM1315MO) was 5.33, the GI50 ([1]; cell line T47D) was 5.78 and the GI50 ([1]; cell line UACC812) was 5.53. The GI50 ([1]; cell line ZR75B) was 5.93, the GI50 ([1]; cell line ZR751) was 5.94 and the “subtype-specific response (sensitivity by transcriptional subtype)” value ([2]; GI50 across subtypes) was “highest in luminal and ERBB2^AMP and lower in basal and claudin-low breast cancer cell lines; also recorded: Luminal and ERBB2AMP cell lines preferentially respond”. For the same molecule, the Subtype specificity [2] was “Luminal/ERBB2AMP”.

Molecule `C=CCNC1=C2C[C@@H](C)C[C@H](OC)[C@H](O)[C@@H](C)/C=C(\C)[C@H](OC(N)=O)[C@@H](OC)/C=C\C=C(/C)C(=O)NC(=CC1=O)C2=O` [17-AAG] has a GI50 ([1]; 600MPE cell line, censored GI50 values) of 6.87, a GI50 [1, 3] of 7.25 and a GI50 [1, 4] of 7.69. It also gave a GI50 [1, 5] of 6.65, a GI50 ([1]; BT549 cell line, censored GI50 values) of 7.47 and a GI50 [1, 6] of 6.57. For the same molecule, the GI50 [1, 7] was 7.23, the GI50 [1, 8] was 6.62 and the GI50 ([1]; HCC202 cell line, censored GI50 values) was 8.39. It also gave a GI50 [1, 9] of 6.86, a GI50 [1, 10] of 5.29 and a GI50 ([1]; HCC1395 cell line, censored GI50 values) of 6.54. The GI50 [1, 11] was 7.35, the GI50 [1, 12] was 7.70 and the GI50 [1, 13] was 6.91. For the same molecule, the GI50 [1, 14] was 7.04, the GI50 [1, 15] was 6.87 and the GI50 [1, 16] was 7.49. For the same molecule, the GI50 [1, 17] was 6.93, the GI50 [1, 18] was 6.81 and the GI50 [1, 19] was 6.97. For the same molecule, the GI50 [1, 20] was 6.25, the GI50 [1, 21] was 7.46 and the GI50 [1, 22] was 7.54. It also gave a GI50 ([1]; MDAMB231 cell line, censored GI50 values) of 6.11, a GI50 [1, 23] of 7.24 and a GI50 [1, 24] of 7.30. The GI50 [1, 25] was 5.96, the GI50 [1, 26] was 7.14 and the GI50 [1, 27] was 5.62. The GI50 [1, 28] was 7.50, the GI50 ([1]; SUM44PE cell line, censored GI50 values) was 8.84 and the GI50 [1, 29] was 7.46. It also gave a GI50 [1, 30] of 7.00, a GI50 [1, 31] of 7.46 and a GI50 [1, 32] of 7.46. For the same molecule, the GI50 [1, 33] was 7.66, the GI50 ([1]; UACC893 cell line, censored GI50 values) was 7.90 and the GI50 [1, 34] was 7.14. For the same molecule, the GI50 [1, 35] was 6.56, the GI50 ([1]; cell line 600MPE) was 6.87 and the GI50 ([1]; cell line AU565) was 7.25. The GI50 ([1]; cell line BT474) was 7.69, the GI50 ([1]; cell line BT483) was 6.65 and the GI50 ([1]; cell line BT549) was 7.47. The GI50 ([1]; cell line CAMA1) was 6.57, the GI50 ([1]; cell line HCC38) was 7.23 and the GI50 ([1]; cell line HCC70) was 6.62. The GI50 ([1]; cell line HCC202) was 8.39, the GI50 ([1]; cell line HCC1143) was 6.86 and the GI50 ([1]; cell line HCC1187) was 5.29. It also gave a GI50 ([1]; cell line HCC1395) of 6.54, a GI50 ([1]; cell line HCC1419) of 7.35 and a GI50 ([1]; cell line HCC1428) of 7.70. It also gave a GI50 ([1]; cell line HCC1500) of 6.91, a GI50 ([1]; cell line HCC1806) of 7.04 and a GI50 ([1]; cell line HCC1937) of 6.87. For the same molecule, the GI50 ([1]; cell line HCC1954) was 7.49, the GI50 ([1]; cell line HCC2185) was 6.93 and the GI50 ([1]; cell line HCC3153) was 6.81. The GI50 ([1]; cell line LY2) was 6.97, the GI50 ([1]; cell line MCF7) was 6.25 and the GI50 ([1]; cell line MDAMB134V) was 7.46. For the same molecule, the GI50 ([1]; cell line MDAMB175V) was 7.54, the GI50 ([1]; cell line MDAMB231) was 6.11 and the GI50 ([1]; cell line MDAMB361) was 7.24. For the same molecule, the GI50 ([1]; cell line MDAMB415) was 7.30, the GI50 ([1]; cell line MDAMB436) was 5.96 and the GI50 ([1]; cell line MDAMB453) was 7.14. It also gave a GI50 ([1]; cell line MDAMB468) of 5.62, a GI50 ([1]; cell line SKBR3) of 7.50 and a GI50 ([1]; cell line SUM44PE) of 8.84. The GI50 ([1]; cell line SUM52PE) was 7.46, the GI50 ([1]; cell line SUM149PT) was 7.00 and the GI50 ([1]; cell line SUM159PT) was 7.46. It also gave a GI50 ([1]; cell line SUM185PE) of 7.46, a GI50 ([1]; cell line SUM1315MO) of 7.66 and a GI50 ([1]; cell line UACC893) of 7.90. The GI50 ([1]; cell line ZR75B) was 7.14, the GI50 ([1]; cell line ZR751) was 6.56 and the Subtype specificity [2] was “Luminal/ERBB2AMP”.
